Legend:
[1] = system: Corn Earworm (CEW) (Helicoverpa zea); test: Bioassay on Corn Earworm (CEW), 128-well diet tray assay; assay type: in vivo; details: Helicoverpa zea, 168 h, second instar larvae, five to seven days; for mortality at 0.5 µg/cm2: 0.5 μg/cm2 on artificial diet, read-out: Rating CEW (% Control (or Mortality)), *Tested at 0.5 μg/cm2; for mortality at 50 µg/cm2: 50 μg/cm2 on artificial diet, read-out: Rating CEW (% Control (or Mortality))
Protocol: (§1) Certain molecules disclosed in this document were tested against BAW and CEW using procedures described in the following examples. In the reporting of the results, the “BAW & CEW Rating Table” was used (See Table Section).
Bioassays on CEW (Helicoverpa zea)
(§2) Trays were covered with a clear self-adhesive cover and held at 25° C., 14:10 light-dark for five to seven days. Percent mortality was recorded for the larvae in each well; activity in the eight wells was then averaged. The results are indicated in the table entitled “Table ABC: Biological Results” (See Table Section).

[2] = system: Beet Armyworm (BAW) (Spodoptera exigua); test: Bioassay on Beet Armyworm (BAW), 128-well diet tray assay; assay type: in vivo; details: Spodoptera exigua, 168 h, second instar larvae, five to seven days; for mortality at 50 µg/cm2: 50 μg/cm2 on artificial diet, read-out: Rating BAW (% Control (or Mortality))
Protocol: as §1
Bioassays on BAW (Spodoptera exigua)
as §2

SMILES	mortality at 0.5 µg/cm2 [1]	mortality at 50 µg/cm2 [2]	mortality at 50 µg/cm2 [1]	mortality at 12.5 µg/cm2 ([1]; 12.5 μg/cm2 on artificial diet, read-out: Rating CEW (% Control (or Mortality)), **Tested at 12.5 μg/cm2)	mortality at 12.5 µg/cm2 ([2]; 12.5 μg/cm2 on artificial diet, read-out: Rating BAW (% Control (or Mortality)), **Tested at 12.5 μg/cm2)
Cc1ccc(F)c(N/C(S)=N/C(=O)Nc2ccc(-c3ncn(-c4ccc(OC(F)(F)F)cc4)n3)cc2)c1 [Molecule A89]	50 to 100%	50 to 100%			
CCC(C)c1ccccc1N/C(=N\C(=O)Nc1ccc(-c2ncn(-c3ccc(OC(F)(F)F)cc3)n2)cc1)SCOC(=O)C(C)C (stereo not drawn) [Molecule A54]		50 to 100%	50 to 100%		
Cc1ccccc1N/C(S)=C(\C#N)C(=O)Nc1ccc(-c2ncn(-c3ccc(OC(F)(F)F)cc3)n2)cc1 [Molecule A29, (Z)-2-Cyano-3-mercapto-3-(o-tolylamino)-N-(4-(1-(4-(trifluoromethoxy)phenyl)-1H-1,2,4-triazol-3-yl)phenyl)acrylamide]		0 to 50%	50 to 100%		
O=C(/N=C(\S)Nc1ccc(Cl)cc1Cl)Nc1ccc(-c2ncn(-c3ccc(OC(F)(F)F)cc3)n2)cc1 [Molecule A78]		0%			
O=C(/N=C(\S)Nc1ccccc1C(F)(F)F)Nc1ccc(-c2ncn(-c3ccc(OC(F)(F)F)cc3)n2)cc1 [Molecule A127]		50 to 100%	0%		
Cc1cccc(N/C(S)=N/C(=O)Nc2ccc(-c3ncn(-c4ccc(OC(F)(F)F)cc4)n3)cc2)c1C(C)C [Molecule A106]	50 to 100%	50 to 100%			
CC(C)C(=O)OCS/C(=N/C(=O)Nc1ccc(-c2ncn(-c3ccc(OC(F)(F)F)cc3)n2)cc1)Nc1c(F)cccc1F [Molecule A61]		50 to 100%	50 to 100%		
Cc1cc(C)c(N2/C(=N/C(=O)Nc3ccc(-c4ncn(-c5ccc(OC(F)(F)F)cc5)n4)cc3)SCC2C)c(C)c1 (stereo not drawn) [Molecule A40]				50 to 100%	50 to 100%
CCc1cccc(C)c1N1C(=O)CS/C1=N\C(=O)Nc1ccc(-c2ncn(-c3ccc(OC(F)(F)F)cc3)n2)cc1 [Molecule A103]	50 to 100%	50 to 100%			
O=C(/N=C1\SCC(=O)N1c1ccccc1C1CC1)Nc1ccc(-c2ncn(-c3ccc(OC(F)(F)F)cc3)n2)cc1 [Molecule A66]		50 to 100%			
Cc1cccc(N/C(S)=N/C(=O)Nc2ccc(-c3ncn(-c4ccc(OC(F)(F)F)cc4)n3)cc2)c1C [Molecule A71]		50 to 100%			
CC(C)c1cc(F)ccc1N1C(=O)CS/C1=N\C(=O)Nc1ccc(-c2ncn(-c3ccc(OC(F)(F)F)cc3)n2)cc1 [Molecule A117]	50 to 100%	50 to 100%			
O=C(/N=C1\SCC(=O)N1c1ccc(Cl)cc1Cl)Nc1ccc(-c2ncn(-c3ccc(OC(F)(F)F)cc3)n2)cc1 [Molecule A92]	50 to 100%	50 to 100%			
CC(C)n1nccc1N1C(=O)CS/C1=N\C(=O)Nc1ccc(-c2ncn(-c3ccc(OC(F)(F)F)cc3)n2)cc1 [Molecule A121]	50 to 100%	50 to 100%			
CC(C)c1ccccc1N1C(=O)CS/C1=N\C(=O)Nc1ccc(-c2ncn(-c3ccc(OC(F)(F)F)cc3)n2)cc1 [Molecule A19, (Z)-1-(3-(2-isopropylphenyl)-4-oxothiazolidin-2-ylidene)-3-(4-(1-(4-(trifluoromethoxy)phenyl)-1H-1,2,4-triazol-3-yl)phenyl)urea]		50 to 100%	50 to 100%		
Cc1cc(C)cc(N/C(S)=N/C(=O)Nc2ccc(-c3ncn(-c4ccc(OC(F)(F)F)cc4)n3)cc2)c1 [Molecule A100]	50 to 100%	50 to 100%			
Cc1ccc(Cl)cc1N/C(S)=N/C(=O)Nc1ccc(-c2ncn(-c3ccc(OC(F)(F)F)cc3)n2)cc1 [Molecule A72]	50 to 100%	50 to 100%			

SMILES	mortality at 0.5 µg/cm2 [1]	mortality at 50 µg/cm2 [2]	mortality at 50 µg/cm2 [1]	mortality at 12.5 µg/cm2 ([1]; 12.5 μg/cm2 on artificial diet, read-out: Rating CEW (% Control (or Mortality)), **Tested at 12.5 μg/cm2)	mortality at 12.5 µg/cm2 ([2]; 12.5 μg/cm2 on artificial diet, read-out: Rating BAW (% Control (or Mortality)), **Tested at 12.5 μg/cm2)
CC(C)c1ccccc1N1C(=O)CS/C1=C\C(=O)Nc1ccc(-c2ncn(-c3ccc(OC(F)(F)F)cc3)n2)cc1 [Molecule A24, (Z)-2-(3-(2-isopropylphenyl)-4-oxothiazolidin-2-ylidene)-N-(4-(1-(4-(trifluoromethoxy)phenyl)-1H-1,2,4-triazol-3-yl)phenyl)acetamide]		50 to 100%	50 to 100%		
CC(C)c1cc(F)ccc1N/C(S)=N/C(=O)Nc1ccc(-c2ncn(-c3ccc(OC(F)(F)F)cc3)n2)cc1 [Molecule A116]	50 to 100%	50 to 100%			
Cc1ccc(N/C(S)=N/C(=O)Nc2ccc(-c3ncn(-c4ccc(OC(F)(F)F)cc4)n3)cc2)c(Cl)c1 [Molecule A73]	50 to 100%	50 to 100%			
Cc1cc(C)c(N/C(=N\C(=O)Nc2ccc(-c3ncn(-c4ccc(OC(F)(F)F)cc4)n3)cc2)SCOC(=O)C(C)C)c(C)c1 [Molecule A59]		50 to 100%	50 to 100%		
CCCc1ccccc1N/C(S)=N/C(=O)Nc1ccc(-c2ncn(-c3ccc(OC(F)(F)F)cc3)n2)cc1 [Molecule A64]	50 to 100%	50 to 100%			
CC(C)(C)c1ccccc1N/C(S)=N/C(=O)Nc1ccc(-c2ncn(-c3ccc(OC(F)(F)F)cc3)n2)cc1 [Molecule A67]	50 to 100%	50 to 100%			
CCc1cccc(C)c1N/C(=N\C(=O)Nc1ccc(-c2ncn(-c3ccc(OC(F)(F)F)cc3)n2)cc1)SCOC(=O)C(C)C [Molecule A55]		50 to 100%	50 to 100%		
Cc1cccc(C)c1N1CC(C)CS/C1=N\C(=O)Nc1ccc(-c2ncn(-c3ccc(OC(F)(F)F)cc3)n2)cc1 (stereo not drawn) [Molecule A39]		50 to 100%	50 to 100%		
Cc1ccc(N2C(=O)CS/C2=N\C(=O)Nc2ccc(-c3ncn(-c4ccc(OC(F)(F)F)cc4)n3)cc2)c(C(C)C)c1 [Molecule A88]	50 to 100%	50 to 100%			
CC(C)c1cccc(N2C(=O)CS/C2=N\C(=O)Nc2ccc(-c3ncn(-c4ccc(OC(F)(F)F)cc4)n3)cc2)c1 [Molecule A120]		0%	0%		
CC(C)c1ccccc1N/C(S)=N/C(=O)Nc1ccc(-c2ccn(-c3ccc(OC(F)(F)F)cc3)n2)cc1 [Molecule A114]	50 to 100%	50 to 100%			
Cc1cc(C)c(-n2c(C)cs/c2=N\C(=O)Nc2ccc(-c3ncn(-c4ccc(OC(F)(F)F)cc4)n3)cc2)c(C)c1 [Molecule A43, (Z)-1-(3-mesityl-4-methylthiazol-2(3H)-ylidene)-3-(4-(1-(4-(trifluoromethoxy)phenyl)-1H-1,2,4-triazol-3-yl)phenyl)urea]		0%	50 to 100%		
COc1ccc(Cl)cc1N/C(S)=N/C(=O)Nc1ccc(-c2ncn(-c3ccc(OC(F)(F)F)cc3)n2)cc1 [Molecule A99]		0%			
Cc1ccc(C(C)C)c(N/C(S)=N/C(=O)Nc2ccc(-c3ncn(-c4ccc(OC(F)(F)F)cc4)n3)cc2)c1 [Molecule A83]		50 to 100%			
CC(C)c1ccccc1N/C(S)=N/C(=O)Nc1ccc(-c2ncn(-c3ccc(OC(F)(F)C(F)(F)F)cc3)n2)cc1 [Molecule A112]		50 to 100%			
CC(C)c1ccccc1N1C(=O)CS/C1=N\C(=O)Nc1ccc(-c2nnc(-c3ccc(OC(F)(F)C(F)(F)F)cc3)o2)cc1 [Molecule A102, (Z)-1-(3-(2-isopropylphenyl)-4-oxothiazolidin-2-ylidene)-3-(4-(5-(4-(perfluoroethoxy)phenyl)-1,3,4-oxadiazol-2-yl)phenyl)urea]	50 to 100%				
CC(C)(C)c1ccccc1N1C(=O)CS/C1=N\C(=O)Nc1ccc(-c2ncn(-c3ccc(OC(F)(F)F)cc3)n2)cc1 [Molecule A95]	50 to 100%				
